By IC50 is commonly meant the concentration that inhibits the measured activity by half.

Each structure is given as a SMILES string. Like-named read-outs stand apart in the source and are kept apart here.

In assay [1] the test system is HT29 cells. Description: anti-proliferative activity using HT29 cells. In kind it is cell-based, human. On the procedure:
(§1) Cytotoxicity was tested using CHO-K1 cells and anti-proliferative activity was examined using HT29 cells.
(§2) The effects were compared with Doxorubicin and Sodium butyrate.

Assay [2] relates to CHO-K1 cells. Description: cytotoxicity using CHO-K1 cells. In kind it is cell-based, Chinese hamster. The conditions noted are these: Cricetulus griseus, CHO-K1 ovary sane cell line. On the procedure: as §1, §2

In the case of `COc1cccc2c1C(=O)c1c(O)c3c(c(O)c1C2=O)C[C@@](O)(C(=O)CO)C[C@@H]3O[C@H]1C[C@H](N)[C@H](O)[C@H](C)O1` [Doxorubicin], the IC50 in assay [1] (HT-29, HT29 human colon adenocarcinoma, read-out: IC50 (μM) for HT29) turned out to be 1.32 µM; in assay [2], 1.99 µM.

`CCCC(=O)[O-].[Na+]` [Sodium butyrate]: in assay [1] (Homo sapiens, HT-29, read-out: IC50 (μM) for HT29), the half-maximal inhibitory concentration (IC50) was found to be 4890 µM.
